According to the supplement of paper PMC10307832:

Columns and labels:
Assay in all cases: relative viability (nuclei count vs DMSO), 5 days (fraction); higher = more cells survive
[1] = compound: CCN(CCO)CCCC(C)Nc1ccnc2cc(Cl)ccc12 [Hydroxychloroquine] + C[C@@H](Oc1cc(-c2cnn(C3CCNCC3)c2)cnc1N)c1c(Cl)ccc(F)c1Cl [Crizotinib] (partner 1 µM)
Summary of the method: (§1)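 Medians of duplicate plates are given as relative viability. That measure is the nuclei count in treated wells divided by the count in vehicle wells. Counts were taken on 4× images of lung cancer cell lines in 1536-well plates, 5 days after pin-tool dosing the day after seeding with one drug alone or a fixed anchor-drug dose plus five library-drug doses (not always all listed) in √10 steps.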

[2] = compound: CCN(CCO)CCCC(C)Nc1ccnc2cc(Cl)ccc12 [Hydroxychloroquine] + N=C(N)NC(=N)NCCc1ccccc1 [Phenformin] (partner 250 µM)
Summary of the method: as §1

[3] = compound: CCN(CCO)CCCC(C)Nc1ccnc2cc(Cl)ccc12 [Hydroxychloroquine] + COc1cccc2cc(-c3nc([C@H]4CC[C@H](C(=O)O)CC4)n4ncnc(N)c34)[nH]c12 [OSI-027] (partner 0.5 µM)
Summary of the method: as §1

[4] = compound: CCN(CCO)CCCC(C)Nc1ccnc2cc(Cl)ccc12 [Hydroxychloroquine] + CC(=O)Nc1cccc(-n2c(=O)n(C3CC3)c(=O)c3c(Nc4ccc(I)cc4F)n(C)c(=O)c(C)c32)c1 [Trametinib] (partner 0.02 µM)
Summary of the method: as §1

| Cell Line | relative viability ([1]; first compound 0.5 µM) | relative viability ([1]; first compound 1.581 µM) | relative viability ([1]; first compound 5 µM) | relative viability ([1]; first compound 15.81 µM) | relative viability ([1]; first compound 50 µM) | relative viability ([2]; first compound 0.5 µM) | relative viability ([2]; first compound 1.581 µM) | relative viability ([2]; first compound 5 µM) | relative viability ([2]; first compound 15.81 µM) | relative viability ([2]; first compound 50 µM) | relative viability ([3]; first compound 0.5 µM) | relative viability ([3]; first compound 1.581 µM) | relative viability ([3]; first compound 5 µM) | relative viability ([3]; first compound 15.81 µM) | relative viability ([3]; first compound 50 µM) | relative viability ([4]; first compound 0.5 µM) | relative viability ([4]; first compound 1.581 µM) | relative viability ([4]; first compound 5 µM) | relative viability ([4]; first compound 15.81 µM) | relative viability ([4]; first compound 50 µM) |
| --- | --- | --- | --- | --- | --- | --- | --- | --- | --- | --- | --- | --- | --- | --- | --- | --- | --- | --- | --- | --- |
| 201T | 1.02 | 1 | 1.07 | 0.978 | 0.821 | 0.441 | 0.428 | 0.449 | 0.419 | 0.526 | 0.731 | 0.738 | 0.721 | 0.827 | 0.965 | 0.727 | 0.777 | 0.728 | 0.733 | 0.724 |
| A-427 | 0.935 | 0.869 | 0.94 | 0.838 | 0.973 | 0.316 | 0.293 | 0.315 | 0.284 | 0.229 | 0.486 | 0.308 | 0.387 | 0.412 | 0.424 | 0.752 | 0.639 | 0.697 | 0.715 | 0.675 |
| ABC-1 | 1.13 | 0.981 | 1.46 | 1.2 | 1.09 | 0.244 | 0.205 | 0.237 | 0.192 | 0.206 | 0.469 | 0.501 | 0.467 | 0.417 | 0.631 | – | – | – | – | – |
| BEN | 0.848 | 0.728 | 0.863 | 0.947 | 1.01 | 0.255 | 0.26 | 0.234 | 0.241 | 0.303 | 0.319 | 0.284 | 0.268 | 0.373 | 0.325 | 0.951 | 0.881 | 0.954 | 1.12 | 1.03 |
| CAL-12T | 0.577 | 0.614 | 0.92 | 0.579 | 0.831 | 0.585 | 0.593 | 0.587 | 0.599 | 0.519 | 0.97 | 0.8 | 0.633 | 0.684 | 0.687 | 0.268 | 0.265 | 0.326 | 0.338 | 0.32 |
| COR-L23 | 0.786 | 0.573 | 0.895 | 0.868 | 0.86 | 0.445 | 0.467 | 0.496 | 0.49 | 0.485 | 0.756 | 0.809 | 0.822 | 0.91 | 0.85 | 0.602 | 0.582 | 0.616 | 0.767 | 0.712 |
| COR-L 105 | 0.871 | 0.838 | 0.901 | 0.835 | 0.79 | 0.529 | 0.476 | 0.497 | 0.351 | 0.447 | 0.643 | 0.598 | 0.708 | 0.739 | 0.668 | 0.472 | 0.393 | 0.44 | 0.384 | 0.391 |
| Calu-6 | 0.84 | 0.855 | 0.847 | 0.896 | 0.579 | – | – | – | – | – | – | – | – | – | – | – | – | – | – | – |
| ChaGo-K-1 | 1.05 | 1.14 | 1.16 | 1.51 | 1.24 | 0.509 | 0.542 | 0.438 | 0.501 | 0.522 | 0.688 | 0.675 | 0.498 | 0.53 | 0.609 | 0.962 | 0.916 | 0.865 | 0.853 | 0.891 |
| EKVX | 1.01 | 0.919 | 0.814 | 0.907 | 0.963 | 0.249 | 0.192 | 0.249 | 0.243 | 0.208 | 0.797 | 0.851 | 0.79 | 0.758 | 0.776 | 0.348 | 0.302 | 0.316 | 0.637 | 0.352 |
| EMC-BAC-2 | 0.826 | 0.743 | 0.741 | 0.755 | 0.807 | 0.543 | 0.385 | 0.497 | 0.523 | 0.503 | 0.376 | 0.324 | 0.381 | 0.368 | 0.365 | 0.917 | 0.694 | 0.85 | 0.784 | 0.753 |
| EPLC-272H | 0.8 | 0.983 | 0.92 | 0.86 | 1.23 | 0.267 | 0.312 | 0.273 | 0.309 | 0.241 | 0.249 | 0.232 | 0.276 | 0.252 | 0.314 | 0.272 | 0.311 | 0.273 | 0.271 | 0.298 |
| H3255 | 0.848 | 0.979 | 0.716 | 0.841 | 0.985 | 0.332 | 0.368 | 0.326 | 0.356 | 0.313 | 0.653 | 0.524 | 0.569 | 0.6 | 0.665 | 0.695 | 0.614 | 0.546 | 0.854 | 0.665 |
| HARA | 1.13 | 1.31 | 1.05 | 1.02 | 1.04 | 0.475 | 0.406 | 0.519 | 0.442 | 0.465 | 0.608 | 0.416 | 0.469 | 0.486 | 0.435 | 0.725 | 0.975 | 0.88 | 0.704 | 0.613 |
| HCC-15 | 0.884 | 0.818 | 0.867 | 1.01 | 0.94 | 0.461 | 0.465 | 0.522 | 0.497 | 0.456 | 0.754 | 0.672 | 0.634 | 0.656 | 0.724 | 0.4 | 0.387 | 0.351 | 0.38 | 0.311 |
| HCC-44 | 0.821 | 0.804 | 0.87 | 0.829 | 1.01 | 0.316 | 0.145 | 0.171 | 0.226 | 0.234 | 0.504 | 0.418 | 0.43 | 0.511 | 0.547 | 1.07 | 1.04 | 1.14 | 1.08 | 1.1 |
| HCC-78 | 0.349 | 0.325 | 0.338 | 0.314 | 0.358 | 0.809 | 0.739 | 0.716 | 0.653 | 0.741 | 0.377 | 0.376 | 0.366 | 0.323 | 0.349 | 0.823 | 0.834 | 0.878 | 0.752 | 0.904 |
